The values that follow come from PMC3466778 (Biochemistry, 2012).

This assay addresses T1, KcsA (Streptomyces lividans, UniProt P0A334).
T1 sequence (P0A334 1-160): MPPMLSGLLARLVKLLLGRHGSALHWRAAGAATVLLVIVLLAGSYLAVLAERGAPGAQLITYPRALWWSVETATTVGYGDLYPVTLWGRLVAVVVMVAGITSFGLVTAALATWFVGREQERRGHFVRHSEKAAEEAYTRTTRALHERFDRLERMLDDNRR
Kind of assay: fluorescence titration. In kind it is binding.

Regarding `CN(C)c1cccc2c(S(=O)(=O)NCCCCCCCCCCC(=O)O)cccc12` [Dauda], the Kd (commonly the constant that tells how readily two partners part at equilibrium) was 0.47 ± 0.1 µM.
